Consider four compounds from patent publication US9040501B2, “Compositions and methods for treating cancer” (Eisai Inc., priority 2009, dated 2015).

The structures appear in SMILES notation. Like-named read-outs stand apart in the source and are kept apart here.

One data set addresses CDA (Homo sapiens (Human), UniProt P32320). Particulars: deamination by CDA; Chabot et al. 1983, Bouffard et al. 1993; cited from earlier work.
The target in another data set is cytidine deaminase (CDA) (Homo sapiens (Human), UniProt P32320). In words: Effect of ER-876437 on the half-life of gemcitabine in the presence of CDA in Tris-HCl buffer at 37° C. It counts as biochemical. Further details: half-life: dose or concentration left out as unconfirmed. Particulars: for half-life: cytidine deaminase (CDA) in Tris-HCl buffer, read-out: Estimated T1/2 of gemcitabine; for reduction in gemcitabine concentration: gemcitabine alone, absence of CDA, Tris-HCl buffer at 37° C., 10 hours. The method, then:
This Example employed a Phenomenex Luna C18(2) HPLC column (100 Å 4.6×250 mm 5 μm). The solvent delivery system employed an HPLC quaternary pump, low pressure mixing. An autosampler having a variable loop, 0.1 to 100 μL range and temperature controlled thermostat was used. The UV detector can employ a dual wavelength detector, a diode array detector, a variable wavelength detector or equivalent, and can be recorded using chromatographic software (e.g., Waters Empower 2 Build 2154, Agilent ChemStation software version A.09.03 or higher for HPLC or equivalent). The analytical balance employed was capable of weighing ±0.1 mg. Degassed HPLC grade water and degassed HPLC grade acetonitrile were used as solvents for the mobile phases.
Gemcitabine Standard Control: 0.2 mM gemcitabine control was prepared by weighing […] of gemcitabine in a 10 mL volumetric flask. […] Solution was labeled as gemcitabine stock solution.

In data set [1] the test system is A2780 human ovarian cancer xenograft. In words: In vivo efficacy study in A2780 human ovarian cancer xenograft model. Further details: species or system female nude mice. Particulars: qdx5 for two weeks. The method, then:
Animals were dosed daily from Monday to Friday for two weeks.
Female nude mice (NU/NU, strain code 088, 6 weeks old, Charles River Laboratory) were implanted subcutaneously with 5×10^6 A2780 cancer cells per mouse. On day 13 when the tumors were approximately 150 mm^3, treatment started as described in Table 9.
Tumor volume and regressions were followed over time. Tumor volume was calculated by (length×width^2)/2. Note that a complete regression was defined as no measurable tumor for at least 3 consecutive measurements; while a partial regression was defined as tumor shrinkage to equal or less than 50% of original tumor volume for 3 consecutive measurements. Tumor growth delay (TGD) was defined as the median number of days for the control and treatment groups to grow to 342.14 mm^3. The average tumor volume on the first day of treatment (day 13) is 171.07 mm^3.

A further data set deals with CDA from human liver (Homo sapiens (Human), UniProt P32320). Particulars: Wentworth and Wolfenden 1975; cited from earlier work.
Sequence of CDA from human liver (P32320 whole entry): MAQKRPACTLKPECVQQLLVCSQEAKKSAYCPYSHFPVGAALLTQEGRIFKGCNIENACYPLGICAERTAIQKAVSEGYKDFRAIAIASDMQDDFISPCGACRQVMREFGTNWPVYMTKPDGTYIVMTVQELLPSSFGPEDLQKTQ

Sequence of cytidine deaminase (CDA) (P32320 whole entry): as above
Sequence of CDA (P32320 whole entry): as above

Consider `Nc1ccn([C@H]2C[C@H](O)[C@@H](CO)O2)c(=O)n1` [deoxycytidine], for which the Michaelis constant (Km) on CDA was 19 ± 4 µM.
Turning to `Nc1ccn([C@@H]2O[C@H](CO)[C@@H](O)C2(F)F)c(=O)n1` [gemcitabine, 2′-deoxy-2′,2′-difluorocytidine], the “Estimated T1/2 of gemcitabine” value at cytidine deaminase (CDA) (Gemcitabine with CDA in Tris-HCl buffer at 37° C.) is less than 35 min. Besides, the half-life at cytidine deaminase (CDA) (pH 7.4, Gemcitabine with CDA and ER-876437 in Tris-HCl buffer at 37° C.) is greater than 780 min; on cytidine deaminase (CDA) (pH 7.4, Gemcitabine with CDA in Tris-HCl buffer at 37° C.), less than 35 min. The “reduction in gemcitabine concentration” value was “no reduction” on cytidine deaminase (CDA) and “did not show any degradation” at cytidine deaminase (CDA) (listed as Gemcitabine). On cytidine deaminase (CDA) (presence of CDA, within 1 hour), the concentration of gemcitabine is given as roughly 0 % control. At CDA, the Michaelis-Menten constant (Km) is 95.7 ± 8.4 µM. Also, the “regressions or tumor free survivors at day 41” value in data set [1] (gemcitabine 1 mg/kg PO alone or ER-876437 10 mg/kg PO alone) is reported as “no regressions or tumor free survivors”. Besides, in data set [1] (gemcitabine 1 mg/kg PO and/or ER-876437 10 mg/kg PO (30 minutes prior)), the “effect on tumor growth (FIG. 3)” value is given as “limited efficacy”. In data set [1] (gemcitabine 1 mg/kg PO and/or ER-876437 10 mg/kg PO (30 minutes prior), delay vs vehicle to reach 342.14 mm^3), the “TGD (tumor growth delay)” value turned out to be 2 days.
Turning to `Nc1ncn([C@@H]2O[C@H](CO)[C@@H](O)[C@H]2O)c(=O)n1` [5-azacytidine, 4-Amino-1-(β-D-ribofuranosyl)-1,3,5-triazin-2(1H)-one], the Michaelis constant (Km) at CDA from human liver is 58 µM; on CDA it was 216 ± 51 µM.
For the compound `Nc1cnn([C@@H]2O[C@H](CO)[C@@H](O)[C@H]2O)c(=O)n1` [6-azacytidine], the Michaelis constant (Km) at CDA from human liver was 4200 µM.
